Test results reported in ChEMBL document CHEMBL1201862, “PubChem BioAssay data set” (2004).
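96-well plates; 48 h exposure; 5 concentrations. Endpoints by linear interpolation between flanking doses. Not reached: highest tested concentration assigned. Here, GI50 denotes the concentration required for 50% inhibition of growth.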 Active and inactive are the calls of the source. No stated cut-off is given here; in the data, active = GI50 up to about 1.1 µM and inactive = higher.

Key:
Test in all cases: NCI-60 cell line screen, 48 h
HOP-18 = system: HOP-18
LXFL 529 = system: LXFL 529
M19-MEL = system: M19-MEL
RXF 631 = system: RXF 631
KM-20L2 = system: KM-20L2
DMS-114 = system: DMS-114
DLD-1 = system: DLD-1
XF498 = system: XF498
DMS-273 = system: DMS-273

SMILES | GI50 (HOP-18) | GI50 (LXFL 529) | GI50 (M19-MEL) | GI50 (RXF 631) | GI50 (KM-20L2) | GI50 (DMS-114) | GI50 (DLD-1) | GI50 (XF498) | GI50 (DMS-273)
Cc1c(C)c2cc3c(=O)ccoc3c(C)c2oc1=O | 41.6 µM (inactive) | 80.4 µM (inactive) | 70.6 µM (inactive) | 83 µM (inactive) | > 100 µM (inactive) | 48.3 µM (inactive) | – | – | –
COC(=O)N/N=C(\C)c1c(O)cc(C)oc1=O | – | 10.8 µM (inactive) | – | > 100 µM (inactive) | 22.1 µM (inactive) | – | 30.1 µM (inactive) | – | –
COC(=O)[C@@]12OC[C@]34C([C@@H](O)C1O)[C@@]1(C)CC(=O)C(OC(=O)/C=C(/c5ccccc5)C(F)(F)F)=C(C)C1C[C@H]3OC(=O)[C@H](O)[C@H]42 (stereo partly specified) | 30.1 µM (inactive) | 7.35 µM (inactive) | 5.08 µM (inactive) | – | 8.61 µM (inactive) | 4.27 µM (inactive) | 7.41 µM (inactive) | 9.82 µM (inactive) | 3.44 µM (inactive)
O=C1C2C3C=C4c5ccccc5N(c5ccccc5)C4(C2C(=O)N1c1ccc(Br)cc1)[C@H]1C(=O)N(c2ccc(Br)cc2)C(=O)[C@@H]31 (stereo partly specified) | > 100 µM (inactive) | 83.8 µM (inactive) | – | – | > 100 µM (inactive) | – | > 100 µM (inactive) | > 100 µM (inactive) | > 100 µM (inactive)
CCCC/C=C1\CCC(C)(CN(C)C)C1=O (stereo unspecified) | > 100 µM (inactive) | > 100 µM (inactive) | 15.6 µM (inactive) | – | > 100 µM (inactive) | > 100 µM (inactive) | > 10 µM (inactive) | – | –
Cc1cc(-c2ccccc2)cc2[n+]1CC=C2.[O-][Cl+3]([O-])([O-])[O-] | < 0.01 µM (active) | 58.3 µM (inactive) | > 100 µM (inactive) | – | > 100 µM (inactive) | 77.4 µM (inactive) | 58.5 µM (inactive) | – | 46.7 µM (inactive)
CCOc1ccc(NC(=O)CCc2nnc(SC)o2)cc1 | > 100 µM (inactive) | > 100 µM (inactive) | > 100 µM (inactive) | – | > 100 µM (inactive) | > 100 µM (inactive) | > 100 µM (inactive) | – | > 100 µM (inactive)
C=C(C)[C@H]1Cc2c(ccc3c2O[C@@H]2COc4cc(OC)c(OC)cc4[C@@H]2C3=O)O1 [ROTENONE] | – | 0.0368 µM (active) | 0.0559 µM (active) | – | 0.128 µM (active) | < 0.01 µM (active) | 0.241 µM (active) | 0.055 µM (active) | 0.0378 µM (active)
COC(=O)C12C34C=CC5(CCC6(C=CC1(CC3)O6)C52C(=O)OC)O4 (stereo unspecified) | > 100 µM (inactive) | > 100 µM (inactive) | > 100 µM (inactive) | > 100 µM (inactive) | > 100 µM (inactive) | – | – | 46.8 µM (inactive) | > 100 µM (inactive)
C/C(=N/NC(=O)C(N)=O)C(CC(C(=O)Nc1ccccc1C)/C(C)=N\NC(=O)C(N)=O)C(=O)Nc1ccccc1C (stereo unspecified) | – | > 100 µM (inactive) | > 100 µM (inactive) | – | > 100 µM (inactive) | – | > 100 µM (inactive) | – | –
C=CCCCCCCCCCCCC1CCC(CC)N1 (stereo unspecified) | 12.6 µM (inactive) | 12.7 µM (inactive) | 5.15 µM (inactive) | 6.19 µM (inactive) | 4.04 µM (inactive) | 5 µM (inactive) | 3.72 µM (inactive) | – | 2.33 µM (inactive)
COc1ccccc1NC(=O)C1=C(C)NC(C)=C(C(=O)Nc2ccccc2OC)C1c1ccco1 | 3.31 µM (inactive) | 5.15 µM (inactive) | 4.63 µM (inactive) | 6.18 µM (inactive) | 3.76 µM (inactive) | 2.87 µM (inactive) | 4.27 µM (inactive) | 6.01 µM (inactive) | 4.14 µM (inactive)
Cc1cc(C)c(C(=O)/C(=C/c2ccccc2)c2ccccc2)c(C)c1 | > 100 µM (inactive) | 34.8 µM (inactive) | 39.9 µM (inactive) | 29.9 µM (inactive) | 42.2 µM (inactive) | 35.6 µM (inactive) | > 100 µM (inactive) | 19.2 µM (inactive) | –
O=C(Nc1c(O)[nH]c(=S)[nH]c1=O)c1ccccc1F | > 100 µM (inactive) | > 100 µM (inactive) | > 100 µM (inactive) | > 100 µM (inactive) | > 100 µM (inactive) | > 100 µM (inactive) | > 100 µM (inactive) | – | –
S=c1sc2c(S)nc(S)nc2n1-c1ccccc1 | > 100 µM (inactive) | > 100 µM (inactive) | > 100 µM (inactive) | – | > 100 µM (inactive) | 75.5 µM (inactive) | > 100 µM (inactive) | > 100 µM (inactive) | > 100 µM (inactive)
Cc1c(/N=C\c2ccc(N(CCC#N)CCC#N)cc2)c(=O)n(-c2ccccc2)n1C | 25.2 µM (inactive) | > 100 µM (inactive) | > 100 µM (inactive) | – | > 100 µM (inactive) | > 100 µM (inactive) | > 100 µM (inactive) | 28 µM (inactive) | > 88.5 µM (inactive)
CCOc1ccc(/N=C/c2c3ccccc3nc3ccccc23)cc1 | > 100 µM (inactive) | 24.7 µM (inactive) | > 100 µM (inactive) | > 100 µM (inactive) | 40.2 µM (inactive) | 25.1 µM (inactive) | 24.7 µM (inactive) | 65.6 µM (inactive) | 32.4 µM (inactive)
CCCCOC(=O)N[C@H]1CCc2cc(OC)c(OC)c(OC)c2-c2ccc(SC)c(=O)cc21 | 21.4 µM (inactive) | < 0.01 µM (active) | < 0.01 µM (active) | – | < 0.01 µM (active) | < 0.01 µM (active) | < 0.01 µM (active) | < 0.01 µM (active) | < 0.01 µM (active)
CCCCCCCCCCCCCCCCOC(=O)c1cc(O)cc(C(=O)OCCCCCCCCCCCCCCCC)c1 | > 100 µM (inactive) | > 100 µM (inactive) | > 100 µM (inactive) | > 100 µM (inactive) | > 100 µM (inactive) | > 100 µM (inactive) | – | – | > 100 µM (inactive)
COc1cc2c(cc1OC)C(OC)N(C)c1c-2ccc2cc3c(cc12)OCO3 (stereo unspecified) | 21.6 µM (inactive) | – | 1.19 µM (inactive) | – | 0.558 µM (active) | 1.17 µM (inactive) | 9.68 µM (inactive) | 0.895 µM (active) | 1.11 µM (active)
